Biological target: T1, LmxCLK1 (Leishmania mexicana, UniProt E9AMP2)
T1 sequence (E9AMP2 1-422): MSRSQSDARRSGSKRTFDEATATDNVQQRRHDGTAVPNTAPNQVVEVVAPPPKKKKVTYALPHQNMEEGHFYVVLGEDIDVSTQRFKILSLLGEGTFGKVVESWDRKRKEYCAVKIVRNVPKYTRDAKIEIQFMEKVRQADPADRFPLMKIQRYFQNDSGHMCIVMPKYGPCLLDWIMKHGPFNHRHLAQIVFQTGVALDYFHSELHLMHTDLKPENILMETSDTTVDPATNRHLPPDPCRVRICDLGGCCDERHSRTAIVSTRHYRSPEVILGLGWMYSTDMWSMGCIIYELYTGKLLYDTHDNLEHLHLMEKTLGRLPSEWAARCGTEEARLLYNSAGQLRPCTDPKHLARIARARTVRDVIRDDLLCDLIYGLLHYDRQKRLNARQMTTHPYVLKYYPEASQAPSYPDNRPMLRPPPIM
Test: biochemical
Type: binding
Conditions: DSF, 10 µM compound, 2 µM LmxCLK1, Run 1

Compound | ΔTm Run 1 [°C]
CCN(CC)CCCC(C)Nc1nc(C)cc(Nc2ccc3nc(C)cc(N)c3c2)n1 (stereo not drawn) [NSC 23766] | 0.0
CCN1CCN(C(=O)Cc2ccc(Nc3ncc(F)c(Nc4ccc(C(=O)Nc5ccccc5Cl)cc4)n3)cc2)CC1 [Aurora A Inhibitor I] | 0.0
CCn1c(=O)c(-c2cc[nH]n2)cc2c(C)nc(N)nc21 [SAR245409 (XL765)] | 0.1
Cl.Cl.NC1(c2ccc(-c3nc4ccn5c(=O)[nH]nc5c4cc3-c3ccccc3)cc2)CCC1 [MK-2206 2HCl] | -0.1
Cc1[nH]c(/C=C2\C(=O)Nc3ccccc32)c(C)c1CCC(=O)O [TSU-68 (SU6668)] | 0.1
Cc1cc(N2CCOCC2)cc2[nH]c(-c3c(NC[C@@H](O)c4cccc(Cl)c4)cc[nH]c3=O)nc12 [BMS-536924] | 0.2

Same assay, conditions: DSF, 10 µM compound, 2 µM LmxCLK1, Run 1; read-out: ΔTm Run 1

Compound | ΔTm at 10 µM [°C]
O=C(c1ccc(/C=C/c2n[nH]c3ccccc23)cc1)N1CCNCC1 [KW-2449] | 0.4
CC(C)(C)c1cc(/C=C(\C#N)C(N)=S)cc(C(C)(C)C)c1O [Tyrphostin AG 879] | -0.1
O=c1c(O)c(-c2ccc(O)c(O)c2)oc2cc(O)cc(O)c12 [Quercetin] | 0.5
CCOc1ccn(-c2ccc(F)cc2)c(=O)c1C(=O)Nc1ccc(Oc2ccnc(N)c2Cl)c(F)c1 [BMS-777607] | 0.5
CN1CCN(c2nc(C3=C(c4c[nH]c5ccccc45)C(=O)NC3=O)c3ccccc3n2)CC1 [Sotrastaurin] | 1.2
CCN(CC)CCNC(=O)c1c(C)[nH]c(/C=C2\C(=O)Nc3ccc(F)cc32)c1C [Sunitinib Malate] | 0.3
COC(=O)[C@]12CCC(C)(C)C[C@H]1[C@H]1C(=O)C=C3[C@@]4(C)C=C(C#N)C(=O)C(C)(C)[C@@H]4CC[C@@]3(C)[C@]1(C)CC2 [Bardoxolone Methyl] | 0.6
Cc1c(NC(=O)c2ccc(C(C)(C)C)cc2)cccc1-c1cn(C)c(=O)c(Nc2ccc(C(=O)N3CCOCC3)cc2)n1 [CGI1746] | 0
O=C(O)c1ccc(Nc2ncc3c(n2)-c2ccc(Cl)cc2C(c2c(F)cccc2F)=NC3)cc1 [MLN8054] | 0.3
Cc1cc(Nc2nc(N[C@@H](C)c3ncc(F)cn3)ncc2Cl)n[nH]1 [AZD1480] | 0.6
NC(=O)c1ncn([C@@H]2O[C@H](CO)[C@@H](O)[C@H]2O)c1N [Acadesine] | -0.2
Cc1cc([C@@H](C)Nc2ccccc2C(=O)O)c2nc(N3CCOCC3)cc(=O)n2c1 [AZD6482] | 0.1
CC(C)(O)CC(=O)NCCn1ccc2ncnc(Nc3ccc(Oc4cccc(C(F)(F)F)c4)c(Cl)c3)c21 [TAK-285] | -0.5
CS(=O)(=O)N1CCN(Cc2cc3nc(-c4cccc5[nH]ncc45)nc(N4CCOCC4)c3s2)CC1 [GDC-0941] | 0.1
CNc1nc(-c2ccc3c(N)n[nH]c3c2)cc(N2C[C@@H](C(=O)NC3CCCCC3)CC[C@H]2C)n1 [GSK2334470] | 0.3
COCCOc1ccc2c(c1)ncn2-c1ccc2cccc(N3CCC(N)CC3)c2n1 [CP-673451] | 0.1
NC(=O)Nc1cc(-c2cccc(F)c2)sc1C(=O)N[C@H]1CCCNC1 [AZD7762] | 3.5

Same assay, conditions: DSF, 10 µM compound, 2 µM LmxCLK1, Run 2

Compound | ΔTm Run 2 [°C]
CCN(CC)CCCC(C)Nc1nc(C)cc(Nc2ccc3nc(C)cc(N)c3c2)n1 (stereo not drawn) [NSC 23766] | -0.1
CCN1CCN(C(=O)Cc2ccc(Nc3ncc(F)c(Nc4ccc(C(=O)Nc5ccccc5Cl)cc4)n3)cc2)CC1 [Aurora A Inhibitor I] | -0.1
CCn1c(=O)c(-c2cc[nH]n2)cc2c(C)nc(N)nc21 [SAR245409 (XL765)] | -0.2
Cl.Cl.NC1(c2ccc(-c3nc4ccn5c(=O)[nH]nc5c4cc3-c3ccccc3)cc2)CCC1 [MK-2206 2HCl] | -0.1
Cc1[nH]c(/C=C2\C(=O)Nc3ccccc32)c(C)c1CCC(=O)O [TSU-68 (SU6668)] | -0.1
Cc1cc(N2CCOCC2)cc2[nH]c(-c3c(NC[C@@H](O)c4cccc(Cl)c4)cc[nH]c3=O)nc12 [BMS-536924] | 0.1

Same assay, conditions: DSF, 10 µM compound, 2 µM LmxCLK1, Run 2; read-out: ΔTm Run 2

Compound | ΔTm at 10 µM [°C]
O=C(c1ccc(/C=C/c2n[nH]c3ccccc23)cc1)N1CCNCC1 [KW-2449] | 0.4
CC(C)(C)c1cc(/C=C(\C#N)C(N)=S)cc(C(C)(C)C)c1O [Tyrphostin AG 879] | -0.2
O=c1c(O)c(-c2ccc(O)c(O)c2)oc2cc(O)cc(O)c12 [Quercetin] | 0.6
CCOc1ccn(-c2ccc(F)cc2)c(=O)c1C(=O)Nc1ccc(Oc2ccnc(N)c2Cl)c(F)c1 [BMS-777607] | -0.2
CN1CCN(c2nc(C3=C(c4c[nH]c5ccccc45)C(=O)NC3=O)c3ccccc3n2)CC1 [Sotrastaurin] | 0.9
CCN(CC)CCNC(=O)c1c(C)[nH]c(/C=C2\C(=O)Nc3ccc(F)cc32)c1C [Sunitinib Malate] | 0.2
COC(=O)[C@]12CCC(C)(C)C[C@H]1[C@H]1C(=O)C=C3[C@@]4(C)C=C(C#N)C(=O)C(C)(C)[C@@H]4CC[C@@]3(C)[C@]1(C)CC2 [Bardoxolone Methyl] | 0.5
Cc1c(NC(=O)c2ccc(C(C)(C)C)cc2)cccc1-c1cn(C)c(=O)c(Nc2ccc(C(=O)N3CCOCC3)cc2)n1 [CGI1746] | -0.4
O=C(O)c1ccc(Nc2ncc3c(n2)-c2ccc(Cl)cc2C(c2c(F)cccc2F)=NC3)cc1 [MLN8054] | 0.1
Cc1cc(Nc2nc(N[C@@H](C)c3ncc(F)cn3)ncc2Cl)n[nH]1 [AZD1480] | 0.5
NC(=O)c1ncn([C@@H]2O[C@H](CO)[C@@H](O)[C@H]2O)c1N [Acadesine] | -0.2
Cc1cc([C@@H](C)Nc2ccccc2C(=O)O)c2nc(N3CCOCC3)cc(=O)n2c1 [AZD6482] | -0.1
CC(C)(O)CC(=O)NCCn1ccc2ncnc(Nc3ccc(Oc4cccc(C(F)(F)F)c4)c(Cl)c3)c21 [TAK-285] | -0.2
CS(=O)(=O)N1CCN(Cc2cc3nc(-c4cccc5[nH]ncc45)nc(N4CCOCC4)c3s2)CC1 [GDC-0941] | 0
CNc1nc(-c2ccc3c(N)n[nH]c3c2)cc(N2C[C@@H](C(=O)NC3CCCCC3)CC[C@H]2C)n1 [GSK2334470] | -0.5
COCCOc1ccc2c(c1)ncn2-c1ccc2cccc(N3CCC(N)CC3)c2n1 [CP-673451] | 0
NC(=O)Nc1cc(-c2cccc(F)c2)sc1C(=O)N[C@H]1CCCNC1 [AZD7762] | 3.1

Same assay, conditions: DSF, 10 µM compound, 2 µM LmxCLK1, mean of two runs

Compound | ΔTm Average [°C]
CCN(CC)CCCC(C)Nc1nc(C)cc(Nc2ccc3nc(C)cc(N)c3c2)n1 (stereo not drawn) [NSC 23766] | 0.0
CCN1CCN(C(=O)Cc2ccc(Nc3ncc(F)c(Nc4ccc(C(=O)Nc5ccccc5Cl)cc4)n3)cc2)CC1 [Aurora A Inhibitor I] | -0.1
CCn1c(=O)c(-c2cc[nH]n2)cc2c(C)nc(N)nc21 [SAR245409 (XL765)] | 0.0
Cl.Cl.NC1(c2ccc(-c3nc4ccn5c(=O)[nH]nc5c4cc3-c3ccccc3)cc2)CCC1 [MK-2206 2HCl] | -0.1
Cc1[nH]c(/C=C2\C(=O)Nc3ccccc32)c(C)c1CCC(=O)O [TSU-68 (SU6668)] | 0.0
Cc1cc(N2CCOCC2)cc2[nH]c(-c3c(NC[C@@H](O)c4cccc(Cl)c4)cc[nH]c3=O)nc12 [BMS-536924] | 0.1

Same assay, conditions: DSF, 10 µM compound, 2 µM LmxCLK1, mean of two runs; read-out: ΔTm Average

Compound | ΔTm at 10 µM [°C]
O=C(c1ccc(/C=C/c2n[nH]c3ccccc23)cc1)N1CCNCC1 [KW-2449] | 0.4
CC(C)(C)c1cc(/C=C(\C#N)C(N)=S)cc(C(C)(C)C)c1O [Tyrphostin AG 879] | -0.2
O=c1c(O)c(-c2ccc(O)c(O)c2)oc2cc(O)cc(O)c12 [Quercetin] | 0.5
CCOc1ccn(-c2ccc(F)cc2)c(=O)c1C(=O)Nc1ccc(Oc2ccnc(N)c2Cl)c(F)c1 [BMS-777607] | 0.2
CN1CCN(c2nc(C3=C(c4c[nH]c5ccccc45)C(=O)NC3=O)c3ccccc3n2)CC1 [Sotrastaurin] | 1
CCN(CC)CCNC(=O)c1c(C)[nH]c(/C=C2\C(=O)Nc3ccc(F)cc32)c1C [Sunitinib Malate] | 0.2
COC(=O)[C@]12CCC(C)(C)C[C@H]1[C@H]1C(=O)C=C3[C@@]4(C)C=C(C#N)C(=O)C(C)(C)[C@@H]4CC[C@@]3(C)[C@]1(C)CC2 [Bardoxolone Methyl] | 0.5
Cc1c(NC(=O)c2ccc(C(C)(C)C)cc2)cccc1-c1cn(C)c(=O)c(Nc2ccc(C(=O)N3CCOCC3)cc2)n1 [CGI1746] | -0.2
O=C(O)c1ccc(Nc2ncc3c(n2)-c2ccc(Cl)cc2C(c2c(F)cccc2F)=NC3)cc1 [MLN8054] | 0.2
Cc1cc(Nc2nc(N[C@@H](C)c3ncc(F)cn3)ncc2Cl)n[nH]1 [AZD1480] | 0.6
NC(=O)c1ncn([C@@H]2O[C@H](CO)[C@@H](O)[C@H]2O)c1N [Acadesine] | -0.2
Cc1cc([C@@H](C)Nc2ccccc2C(=O)O)c2nc(N3CCOCC3)cc(=O)n2c1 [AZD6482] | 0
CC(C)(O)CC(=O)NCCn1ccc2ncnc(Nc3ccc(Oc4cccc(C(F)(F)F)c4)c(Cl)c3)c21 [TAK-285] | -0.3
CS(=O)(=O)N1CCN(Cc2cc3nc(-c4cccc5[nH]ncc45)nc(N4CCOCC4)c3s2)CC1 [GDC-0941] | 0.1
CNc1nc(-c2ccc3c(N)n[nH]c3c2)cc(N2C[C@@H](C(=O)NC3CCCCC3)CC[C@H]2C)n1 [GSK2334470] | -0.1
COCCOc1ccc2c(c1)ncn2-c1ccc2cccc(N3CCC(N)CC3)c2n1 [CP-673451] | 0
NC(=O)Nc1cc(-c2cccc(F)c2)sc1C(=O)N[C@H]1CCCNC1 [AZD7762] | 3.3

Reference: PMC7619385 (ACS infectious diseases, 2025)
